Data as given in patent publication EP4523682A1, “PROCESS TO COMPLEX OLEANOLIC ACID WITH CYCLODEXTRINS AND PRODUCTS OBTAINED THEREOF” (FUNDACION UNIVERSITARIA SAN ANTONIO (UCAM), priority 2023, dated 2025).

Tests used:
[1] = tested on: phospho-JNK1/2 (Thr 183/Tyr 185); test: Western blot; format: cell-based, Human; details: 21/5.25 µM/mM OA/HP-β-CD; 10 µM OA/DMSO
Method: (§1) Mv1Lu or MDA-MB-231 cells are seeded and allowed to reach 60% confluence in 10 cm diameter plates. At this time, culture medium containing 10% FBS is replaced by an FBS-free medium, incubating the cells for a 24-hours period. Serum-deprived cells are treated with either OA, OA/HP-β-CD, DMSO, HP-β-CD or 10 ng/ml EGF. After time incubations, cells are harvested, washed twice with ice-cold PBS and lysed with 20 mM TRIS pH 7.5, 150 mM NaCl, 1 mM EDTA, 1.2 mM MgCl2, 0.5%, Nonidet p-40, 1mM DTT, 25 mM NaF and 25 mM β-glycerophosphate supplemented with phosphatase inhibitors (I and II) and protease inhibitors (all from Sigma-Aldrich, St Louis, MO, USA). Total protein amount of all extracts is measured and normalized by Bradford assay (Sigma-Aldrich, St Louis, MO, USA). The extracts are analyzed by SDS-PAGE followed by Western blot (WB) using the indicated antibodies (see Antibodies section). […] For protein quantification, Western pictures in 8-bit format are processed in imaged software. Subsequently, in all Western blot pictures, a lane is stablished for each of the samples. In each lane, the band is selected according to the specific size (kDa) of the protein of interest. For each total protein and their phosphorylated version, each band's intensity peak is plotted, and next, the area under the plot is measured by using "Wand (tracing) tool" of imaged to obtain the intensity value. In order to normalize, obtained intensity values are referred to obtained intensity values of either the unphosphorylated form of the protein (total) or a loading control protein such as β-actin, only if the unphosphorylated form is undetectable (non-available antibody for detecting the unphosphorylated form). […]

c-Jun = test: Western blot; format: cell-based, Human; details: 21/5.25 µM/mM OA/HP-β-CD; 10 µM OA/DMSO
Method: as §1

phospho-c-Jun (Ser 63) = test: Western blot; format: cell-based, Human; details: 21/5.25 µM/mM OA/HP-β-CD; 10 µM OA/DMSO
Method: as §1

[2] = tested on: c-Jun active phosphorylated form (p-c-Jun); test: Cell-front migration assay, p-c-Jun immunostaining; format: cell-based, Mink; details: 12.5/3.12 µM/mM OA/HP-β-CD, 5 µM OA/DMSO
Method: Mv1Lu cells are grown until they reach confluence on round glass-coverslips in 10% FBS-EMEM medium. At this time, cells are washed and a 24h serum-starvation period is set by replacing the medium with FBS-free EMEM. After this, the epithelium is scratched using a razor blade, which produces an artificial wound with enough space to allow cells to migrate. […] After the selected times of incubation, glass-coverslips are fixed with 4% formaldehyde (Applichem GmbH, Darmstadt, Germany) in PBS (Biowest, Nuaillé, France) for 10 minutes and washed twice with PBS. After this, cells are permeabilized with 0,3% Triton X-100 (Sigma-Aldrich, St Louis, MO, USA) in PBS for 10 minutes. […] In order to quantify phospho-c-Jun levels in immunofluorescence pictures, images are analyzed and quantified by Image J software. […] Within each sector, the quantified signal of each nucleus is used as a replicate to obtain p-c-Jun intensity data in each of the conditions performed. For a better understanding, the relation of number of p-c-Jun positive nuclei between total nuclei number is calculated. For this purpose, a basal p-c-Jun intensity mean is calculated considering the control condition of the assays, set as a threshold. […]
Data of intensity values obtained from p-c-Jun nuclei quantifications in immunofluorescence pictures are analyzed by using two statistic tests: Two-way ANOVA test and One-way ANOVA test.

[3] = tested on: focal adhesions (FAs) revealed by Paxillin; test: Cell-front migration assay, focal adhesions by paxillin immunostaining; format: cell-based, Mink; details: 6 and 12 hours; 12.5/3.12 µM/mM OA/HP-β-CD; 5 µM OA/DMSO; versus basal and vehicle control
Method: Mv1Lu cells are grown until they reach confluence on round glass-coverslips in 10% FBS-EMEM medium. At this time, cells are washed and a 24h serum-starvation period is set by replacing the medium with FBS-free EMEM. After this, the epithelium is scratched using a razor blade, which produces an artificial wound with enough space to allow cells to migrate. […] After the selected times of incubation, glass-coverslips are fixed with 4% formaldehyde (Applichem GmbH, Darmstadt, Germany) in PBS (Biowest, Nuaillé, France) for 10 minutes and washed twice with PBS. After this, cells are permeabilized with 0,3% Triton X-100 (Sigma-Aldrich, St Louis, MO, USA) in PBS for 10 minutes. For immunostaining, a blocking is performed for 30 minutes at room temperature in PBS solution with 10% FBS, 5% skim milk (Beckton Dickinson, Franklin Lakes, NJ, USA), 0,3% bovine serum albumin (BSA, Sigma-Aldrich, St Louis, MO, USA) and 0,1% Triton X-100. Then, cells are incubated 1 hour at room temperature with anti-paxillin or anti-phospho-c-Jun antibodies, diluted in blocking solution without skim milk. […] Briefly, focal adhesions are quantified from paxillin stained acquired pictures. […] Then, the number of FAs are calculated in each filopodia by using the previously mentioned macros. […] In parallel, the size of each FA is measured using the macros mentioned above. Finally, FA average size is calculated for each treatment.

Oleanolic acid [OA/DMSO]
p-JNK1/2 [1]: stimulated this kinase at time 1 hours | total c-Jun levels (c-Jun): stimulated c-Jun overexpression at the early time of 1 h | p-c-Jun (phospho-c-Jun (Ser 63)): stronger stimulation of p-c-Jun at time 1 hour | p-c-Jun in cells at the edge of the wound (immunostaining) ([2]; 6 and 12 hours): promote the up-regulation of this active form of c-Jun | p-c-Jun fluorescence in the nuclei (quantified) [2]: promoted the expression and activation of this factor | number of adhesion foci (FAs density) [3]: greater number of adhesion foci | size of adhesion foci (FA average size) [3]: small foci
